This is an account of results in ChEMBL document CHEMBL2417440, “Experimental and structural testing module to analyze paralogue-specificity and affinity in the Hsp90 inhibitors series” (J Med Chem, 2013).

The structures appear in SMILES notation. Active and inactive are the calls of the source. No cut-off for these calls is given here.

Assay [1] has as its target T1, Heat shock protein 75 kDa, mitochondrial (Homo sapiens) (UniProt Q12931).
T1 sequence (whole entry): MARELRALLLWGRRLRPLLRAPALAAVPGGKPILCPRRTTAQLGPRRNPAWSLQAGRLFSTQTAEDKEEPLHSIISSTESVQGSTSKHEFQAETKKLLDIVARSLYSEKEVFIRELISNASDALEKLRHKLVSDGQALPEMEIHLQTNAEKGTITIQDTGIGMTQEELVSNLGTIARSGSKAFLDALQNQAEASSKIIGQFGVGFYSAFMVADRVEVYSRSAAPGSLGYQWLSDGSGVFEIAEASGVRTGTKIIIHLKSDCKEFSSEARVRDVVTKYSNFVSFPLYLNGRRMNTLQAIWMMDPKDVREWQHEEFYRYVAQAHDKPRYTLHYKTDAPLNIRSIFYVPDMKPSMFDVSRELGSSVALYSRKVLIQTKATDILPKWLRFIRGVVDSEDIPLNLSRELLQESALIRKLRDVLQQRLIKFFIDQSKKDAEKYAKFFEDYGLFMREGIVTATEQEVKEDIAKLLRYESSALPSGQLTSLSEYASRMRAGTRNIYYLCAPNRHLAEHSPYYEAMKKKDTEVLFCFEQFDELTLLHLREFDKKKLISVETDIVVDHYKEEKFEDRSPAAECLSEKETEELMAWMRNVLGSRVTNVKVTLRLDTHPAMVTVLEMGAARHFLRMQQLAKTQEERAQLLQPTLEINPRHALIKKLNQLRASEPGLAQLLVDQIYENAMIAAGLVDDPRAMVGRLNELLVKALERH
In words: Binding affinity to TRAP1 (unknown origin).

For the next assay, the species on record is Homo sapiens. In words: Ratio of binding affinity to HASP90 (unknown origin) to TRAP1 (unknown origin).
The target of assay [2] is Endoplasmin (Homo sapiens) (UniProt P14625). In words: Binding affinity to GRP94 (unknown origin).
Chain of Endoplasmin (Homo sapiens) (P14625 whole entry): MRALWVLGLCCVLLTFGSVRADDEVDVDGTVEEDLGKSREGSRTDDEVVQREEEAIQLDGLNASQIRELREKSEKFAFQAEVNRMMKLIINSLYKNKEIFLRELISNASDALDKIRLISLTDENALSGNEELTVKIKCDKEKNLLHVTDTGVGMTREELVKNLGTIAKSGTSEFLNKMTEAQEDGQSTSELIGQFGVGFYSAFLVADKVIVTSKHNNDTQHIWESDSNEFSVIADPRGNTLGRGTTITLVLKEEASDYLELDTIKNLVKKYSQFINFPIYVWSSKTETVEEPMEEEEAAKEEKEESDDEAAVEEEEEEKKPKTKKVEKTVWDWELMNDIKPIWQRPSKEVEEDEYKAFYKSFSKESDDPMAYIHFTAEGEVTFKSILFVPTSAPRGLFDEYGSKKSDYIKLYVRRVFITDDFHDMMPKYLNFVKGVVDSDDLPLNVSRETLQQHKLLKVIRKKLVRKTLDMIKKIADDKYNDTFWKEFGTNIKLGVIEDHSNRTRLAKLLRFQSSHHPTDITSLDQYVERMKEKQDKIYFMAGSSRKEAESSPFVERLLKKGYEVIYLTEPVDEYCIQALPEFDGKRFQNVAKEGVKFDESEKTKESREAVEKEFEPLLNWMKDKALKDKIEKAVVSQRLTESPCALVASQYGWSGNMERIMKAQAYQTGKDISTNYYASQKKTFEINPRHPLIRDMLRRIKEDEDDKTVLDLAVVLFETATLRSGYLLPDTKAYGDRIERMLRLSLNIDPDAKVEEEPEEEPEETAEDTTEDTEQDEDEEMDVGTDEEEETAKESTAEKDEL
In assay [3] the target is T2, Heat shock protein HSP90 (Homo sapiens) (UniProt P07900+P08238). In words: Binding affinity to HSP90 (unknown origin). It counts as protein assay.
In assay [4] the target is T3, Heat shock protein 75 kDa, mitochondrial (Homo sapiens, UniProt Q12931).
T3 sequence (Q12931 whole entry): T1 sequence (whole entry)

Assay [5] has as its target T4, Endoplasmin (Canis lupus familiaris, UniProt P41148).
The target of assay [6] is T5, Heat shock protein HSP 90-beta (Homo sapiens, UniProt P08238).
T5 sequence (P08238 whole entry): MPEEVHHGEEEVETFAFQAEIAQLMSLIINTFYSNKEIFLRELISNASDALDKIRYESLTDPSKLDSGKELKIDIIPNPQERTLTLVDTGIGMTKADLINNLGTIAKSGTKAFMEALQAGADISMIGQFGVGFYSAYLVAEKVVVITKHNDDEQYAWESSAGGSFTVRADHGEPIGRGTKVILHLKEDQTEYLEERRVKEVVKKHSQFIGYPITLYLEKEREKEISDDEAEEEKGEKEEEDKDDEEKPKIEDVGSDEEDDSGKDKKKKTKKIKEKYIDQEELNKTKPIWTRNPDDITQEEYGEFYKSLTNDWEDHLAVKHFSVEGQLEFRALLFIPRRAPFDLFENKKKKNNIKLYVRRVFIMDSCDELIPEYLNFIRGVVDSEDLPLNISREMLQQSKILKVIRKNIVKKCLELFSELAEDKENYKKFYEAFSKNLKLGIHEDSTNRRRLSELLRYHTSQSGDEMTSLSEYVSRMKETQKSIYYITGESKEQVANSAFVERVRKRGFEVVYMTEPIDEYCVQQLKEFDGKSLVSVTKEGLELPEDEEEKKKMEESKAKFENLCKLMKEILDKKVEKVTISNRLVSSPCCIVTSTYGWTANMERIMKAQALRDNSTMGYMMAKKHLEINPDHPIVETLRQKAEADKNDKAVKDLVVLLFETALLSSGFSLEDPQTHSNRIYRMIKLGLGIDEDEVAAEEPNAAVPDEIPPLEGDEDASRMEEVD
Assay [7] deals with T6, Heat shock protein HSP 90-alpha (Homo sapiens, UniProt P07900).
Assay [8] addresses T4, Endoplasmin. In words: Binding affinity to dog Grp94 by fluorescence polarization assay. To be noted: read-out: Kd(app). On the technique in general: Fluorescence polarisation rises when a labelled molecule tumbles more slowly, as on binding a larger partner.
In assay [9] the target is T5, Heat shock protein HSP 90-beta. In words: Binding affinity to recombinant HSP90beta (unknown origin) by fluorescence polarization assay. To be noted: read-out: Kd(app).
Assay [10] concerns the target T6, Heat shock protein HSP 90-alpha. The experiment in a line: Binding affinity to HSP90alpha (unknown origin) by fluorescence polarization assay. To be noted: read-out: Kd(app).
The target of assay [11] is T2, Heat shock protein HSP90 (Homo sapiens). In words: Binding affinity to HSP90 in human SKBR3 cell lysates at 3 nM after 8 hrs by fluorescence polarization assay. It counts as protein assay. The conditions noted are these: SK-BR-3.
The target is the same in assay [12]. In words: Binding affinity to HSP90 in human SKBR3 cell lysates at 3 nM up to 24 hrs by fluorescence polarization assay. To be noted: SK-BR-3. It counts as protein assay.
Assay [13] has as its target T3, Heat shock protein 75 kDa, mitochondrial. This is another data set of the same source.
Description: Binding affinity to recombinant human Trap-1 by fluorescence polarization assay
Assay [14] deals with T5, Heat shock protein HSP 90-beta. In words: Binding affinity to HSP90beta (unknown origin).
Assay [15] concerns the target T6, Heat shock protein HSP 90-alpha. In words: Binding affinity to HSP90alpha (unknown origin).

T4 sequence (P41148 whole entry): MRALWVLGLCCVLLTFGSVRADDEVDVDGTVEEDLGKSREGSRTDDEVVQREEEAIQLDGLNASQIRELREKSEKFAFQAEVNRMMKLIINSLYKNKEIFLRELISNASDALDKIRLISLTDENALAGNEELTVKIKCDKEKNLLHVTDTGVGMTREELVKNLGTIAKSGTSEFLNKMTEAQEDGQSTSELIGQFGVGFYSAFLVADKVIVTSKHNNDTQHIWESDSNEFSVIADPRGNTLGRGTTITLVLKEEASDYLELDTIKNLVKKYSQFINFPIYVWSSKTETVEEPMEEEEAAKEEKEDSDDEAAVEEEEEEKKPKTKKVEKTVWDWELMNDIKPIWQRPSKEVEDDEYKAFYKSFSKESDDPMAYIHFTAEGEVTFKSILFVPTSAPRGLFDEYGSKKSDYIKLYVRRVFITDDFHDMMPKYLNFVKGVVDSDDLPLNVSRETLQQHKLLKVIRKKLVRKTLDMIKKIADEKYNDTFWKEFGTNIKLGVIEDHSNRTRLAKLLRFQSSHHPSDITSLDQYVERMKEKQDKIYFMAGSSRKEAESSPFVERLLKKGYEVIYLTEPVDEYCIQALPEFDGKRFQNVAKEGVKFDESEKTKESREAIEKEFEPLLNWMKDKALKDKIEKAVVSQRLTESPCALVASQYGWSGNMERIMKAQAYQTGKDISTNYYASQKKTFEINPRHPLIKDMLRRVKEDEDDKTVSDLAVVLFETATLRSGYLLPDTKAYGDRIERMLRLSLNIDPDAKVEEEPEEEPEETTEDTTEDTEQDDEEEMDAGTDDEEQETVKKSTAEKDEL

The term IC50 denotes the concentration needed to halve the response being measured. A high value points to weaker potency in that assay. For the molecule `Nc1ncnc2c1ncn2[C@@H]1O[C@H](COP(=O)(O)OP(=O)(O)OP(=O)(O)O)[C@@H](O)[C@H]1O` [ADENOSINE TRIPHOSPHATE], the Activity was 31.3 µM in assay [1], 3.4 µM in assay [2] and 840 µM in assay [3]. Further, the Ratio in the assay listed under Homo sapiens was determined as 10. For the same molecule, the IC50 in assay [4] is 31300 nM; on Endoplasmin [5] it was 3240 nM; in [6] it was 894000 nM; in assay [7], 861000 nM.

With `Nc1ncnc2c1nc(Sc1cc3c(cc1I)OCO3)n2CCCNC(=S)Nc1ccc(-c2c3ccc(=O)cc-3oc3cc(O)ccc23)c(C(=O)O)c1`, the Kd amounted to 6.6 nM on Endoplasmin [8], 1.6 nM in [9] and 1.4 nM in assay [10]. Further, the result in assay [11] and in assay [12] was Active.

As to `Nc1ncnc2c1nc(Sc1cc3c(cc1I)OCO3)n2CCCCNC(=S)Nc1ccc(-c2c3ccc(=O)cc-3oc3cc(O)ccc23)c(C(=O)O)c1`, in assay [12], the outcome was Active.

On Endoplasmin [5], `CC(C)c1cc(-c2n[nH]c(=O)n2-c2ccc3c(ccn3C)c2)c(O)cc1O` [GANETESPIB] yielded an IC50 of 10 nM.

Regarding `CO[C@H]1/C=C\C=C(/C)C(=O)NC2=CC(=O)C(NCCCCNC(=O)Cc3ccc4c(c3)C(C)(C)C3=[N+]4CCC4OC5CCN6C(=C5C=C34)C(C)(C)c3cc(S(=O)(=O)[O-])ccc36)=C(C[C@@H](C)C[C@H](OC)[C@H](O)[C@@H](C)/C=C(\C)[C@@H]1OC(N)=O)C2=O` (stereo partly specified), the Kd on Endoplasmin [8] came out at 2.5 nM; in [9], 2.2 nM; in assay [10] it was 0.7 nM; in assay [13], 51.8 nM.

On to `Nc1ncnc2c1ncn2[C@@H]1O[C@H](COP(=O)(O)OP(=O)(O)O)[C@@H](O)[C@H]1O` [ADENOSINE DIPHOSPHATE], for which the Activity was 2.3 µM in assay [2], 34 µM in assay [14], 51 µM in [15] and 41 µM in [3]. Moreover, the IC50 in assay [4] amounted to 55600 nM; on Endoplasmin [5], 11400 nM; in assay [6], 42200 nM; in [7], 59300 nM.

For the molecule `C=CCNC1=C2C[C@@H](C)C[C@H](OC)[C@H](O)[C@@H](C)/C=C(\C)[C@H](OC(N)=O)[C@@H](OC)/C=C\C=C(/C)C(=O)NC(=CC1=O)C2=O` [TANESPIMYCIN], the IC50 came to 1500 nM in assay [4] and 31 nM against Endoplasmin [5].

`Nc1ncnc2c1nc(Sc1cc3c(cc1I)OCO3)n2CCCCCCNC(=S)Nc1ccc(-c2c3ccc(=O)cc-3oc3cc(O)ccc23)c(C(=O)O)c1`: in assay [12], the result was Active.

On to `CC(C)N(CCCn1c(Sc2cc3c(cc2I)OCO3)nc2c(N)ncnc21)C(=S)Nc1ccc(-c2c3ccc(=O)cc-3oc3cc(O)ccc23)c(C(=O)O)c1`, for which the Kd on Endoplasmin [8] was 30.7 nM; in assay [9], 2.8 nM; in assay [10], 3.9 nM; in assay [13] it was 5.8 nM. Moreover, the result in assay [12] was Active.

`Nc1ncnc2c1nc(Sc1cc3c(cc1I)OCO3)n2CCCCCCCCNC(=S)Nc1ccc(-c2c3ccc(=O)cc-3oc3cc(O)ccc23)c(C(=O)O)c1`: in assay [12], the result was inactive.
